According to US10400010B2, “Structure-based peptide inhibitors of P53 aggregation as a new approach to cancer therapeutics” (THE REGENTS OF THE UNIVERSITY OF CALIFORNIA, priority 2013, dated 2019):
“Also recorded” adds a separate entry of the source.

Key:
[1] = tested on: cancer cells bearing misfolded/aggregation-prone mutant p53; assay: Cell viability, standard MTS assay, 2D culture; assay type: cell-based; settings: 24 hours
Method: (§1) B. and C. show one representative case of primary cells from ovarian cancer.
INH-1R caused cell death in a dose dependent manner with less than 50% of cancer cells surviving after only 24 hours of treatment with a dose of 10 μM in a 2D culture system as detected by a standard MTS assay (FIG. 7A). […] In this case cells were plated in 1:1 mixture of PrEGM:matrigel. After cell layer solidified, cells were overlaid with warm PrEGM media containing either the inhibitor or a scrambled control peptide at concentration ranging from 0.1 to 10 μM for 5 to 7 days.

[2] = Serum concentration by MRM mass spectrometry (pharmacokinetic profile); assay type: in vivo, Nude mice
Method: Nude mice were injected in the flank with OVCAR-3 cells and the resulting xenografts were allowed to grow for two weeks. The mice were then treated for three days via IP with 15 mg/kg of INH-1R CPP peptide or scrambled control peptide. They were divided in groups of two and sacrificed at 1, 2, 4, 8, 12 and 24 hours post final peptide injection. Two naïve mice were sacrificed before treatment to obtain a reference value. Peak serum concentration of INH-1R CPP (as well as control peptide) was detected at 1 hour post injection. Average of two mice are shown.
The peptide concentration decreased to approximately 0.3 μM 2 hours post infusion, and remained stable for up to 12 hours (FIG. 10). Given the relative stability of the peptide in serum, IV administration is an acceptable alternative route of administration.

[3] = target: T1, p53 aggregation (segment p53252-258, LTIITLE) (Homo sapiens, UniProt P04637); assay: In vitro Thioflavin T aggregation assay; assay type: biochemical; settings: different concentrations, down to molar ratio 1 inhibitor to 10 p53 molecules
T1 construct: made in house; host or cells: chemical synthesis
Excerpt: The aggregation of p53 is monitored via Thioflavin T assay: an increase in Thioflavin T fluorescence is detected over time due to the formation of increasing amounts of amyloid to which the dye can specifically bind. […] The sequence of this segment, LTIITLE, is SEQ ID NO: 21.
One representative in vitro assay is the thioflavin T assay shown in FIG. 3 (Naiki, H., Higuchi, K., Hosokawa, M., and Takeda, T. (1989) Fluorometric determination of amyloid fibrils in vitro using the fluorescent dye, thioflavine T. Anal. Biochem., 177, 244-249). The assay can be performed using a target sequence peptide, such as LTIITLE (SEQ ID NO: 21), or it can be performed using full-length p53 (such as recombinant p53). In both cases, the peptide (e.g. LTIITLE) (SEQ ID NO: 21) or the p53 is placed in solution with thioflavin T and increasing concentrations of inhibitor. The assay is performed in a multiwall plate (e.g. a 384 well plate). This dye is amyloid specific and is only fluorescent when bound to amyloid aggregates. The fluorescence is measured over time, e.g. with a plate reader. Inhibition is detected as a delay in the onset of aggregation and/or less total amount of aggregates formed.
The designed inhibitors were synthesized and tested in an in vitro Thioflavin T aggregation assay (FIG. 3).

[4] = tested on: cancer cell lines (OVCAR-3, CAOV-3, WiDr, Detroit 562) and primary cells from ovarian cancer patients; assay: Cell entry and co-localization of FITC labeled inhibitor by fluorescence microscopy; assay type: cell-based, human; settings: 24 hours
Excerpt: INH-1R CPP was covalently linked to a FITC fluorescent label and added to different cancer cell lines or primary cells directly obtained from ovarian cancer patients (as depicted here). […] The cell nuclei are stained with Hoechst 33342 (blue), while p53 is recognized by an anti-p53 antibody and stained in red. […] Protein aggregates are stained with the commercially available OC antibody (in red).
To render the inhibitors cell permeable, the inventors fused the peptide-inhibitor panel to a nine-residue poly arginine tag through a three-residue linker, of sequence RPI, derived from endogenous p53 sequence. To confirm their ability to enter cells, the cell penetrating INH-1R inhibitor was linked to a FITC moiety in order to detect the intracellular localization of the probe by fluorescence microscopy (FIG. 4). We treated different cancer cell lines, including but not limited to OVCAR-3, CAOV-3, WiDr, Detroit 562 as well as primary cells derived from cancer patients with the FITC labeled inhibitor for 24 hours. After extensive washes to remove unbound inhibitors, the cells were fixed in formaldehyde and p53 was stained using a commercially available p53 antibody. […] Additionally, the inhibitor was found co-localized with protein aggregates as stained by the conformation specific antibody OC (Kayed et al, 2007, FIG. 4B).

MCF-7 (WT p53) = assay: p53 re-localization in WT p53 control cells; assay type: cell-based; settings: WT p53 bearing cells MCF 7
Excerpt: The structure-guided, rationally designed p53 amyloid inhibitors of the invention specifically target those cancer cells bearing p53 molecules having an aberrant conformation (e.g. aggregated or misfolded p53). […] We then tested the inhibitor on established cancer cell lines as well as on primary cells derived from serous ovarian cancer patients in order to confirm the clinical relevance of our findings. Our inhibitor is designed to specifically target those tumor cells expressing an altered misfolded form of p53 and should have no effect on cells bearing functional, properly folded p53 or aggregation-incompetent p53 mutants. To confirm this, we included several controls. Three established cell lines, one bearing WT p53 (MCF-7) and two which were previously characterized for their p53 aggregation status, one with a non-aggregating mutation (WiDr) and one with a p53 aggregation prone mutation (Detroit 562), were used as negative and positive controls. One of the effects of the inhibitor was to cause re-localization of p53 from the cytosolic compartment to the nucleus (FIG. 5).

[5] = tested on: stable cell line derived from an ovarian cancer tumor (PA40 cells); assay: p53 re-localization and refolding, DO-1 and PAb240 antibody stain; assay type: cell-based
Excerpt: A stable cell line derived from an ovarian cancer tumor is stained with the commercially available DO-1 antibody which recognizes any p53, irrespective of its structural state. […] The PAb240 commercial antibody recognizes misfolded p53, therefore loss of PAb240 antigeneicity reflects a change in the p53 population from misfolded to properly folded, functionally capable protein.
(§2) Properly folded p53 is rapidly degraded in cells as a control mechanism. Misfolded/aggregated p53 cannot be efficiently targeted for degradation therefore protein levels are high in the absence of the inhibitor. This is additional evidence of the ability of the INH-1R to generate a population of folded p53.

OVCAR-3 cell lysates = assay: p53 levels in cell lysates by Western Blot; assay type: cell-based; settings: 0, 1, 5 or 10 μM, 24 hours
Excerpt: The properly folded p53 (see FIG. 6) can now be degraded as is WT p53. The hyperstability due to misfolding/aggregation is lost, and the protein turnover is fast.
as §2

[6] = tested on: primary cells from ovarian cancer; assay: Apoptosis (AnnexinV stain) and proliferation (Ki67 stain); assay type: cell-based; settings: increasing dosage
Excerpt: as §1

OVCAR-3 cells [7] = assay: Apoptosis and necrosis, combined Hoechst/PI/YO-PRO-1 stain; assay type: cell-based; settings: 24 hours
Method: OVCAR-3 cells were treated for 24 hours with the indicated concentrations of either INH-1R CPP or a scrambled inhibitor sequence. Hoechst (blue) stains all nuclei while YO-PRO-1 (green) only stains apoptotic cells and propidium iodide (red) stains late apoptotic/necrotic cells.

OVCAR-3 cells [8] = assay: Cell death by FACS (cell size and granularity); assay type: cell-based; settings: 10 μM, 24 hours
Method: Cells treated for 24 hours with either INH-1R or a control peptide were trypsinized and analyzed by FACS.

[9] = tested on: p53 target genes p21 and Mdm2; assay: Up-regulation of p53 target genes by QPCR or RNAseq; assay type: cell-based; settings: tumor cells with p53 misfolding/aggregating mutations
Excerpt: Specificity and efficacy of INH-1R CPP was confirmed by up-regulation of p53 target genes only in tumor cells containing p53 misfolding/aggregating mutations.

[10] = tested on: OVCAR-3 cells bearing the aggregation prone p53 R248Q mutation (xenograft); assay: OVCAR-3 xenograft tumor proliferation in vivo; parameters: species or system NOD/SCID mice
Method: A. Images of the xenografts from mice (n=3 for each group, one mouse had 2 xenografts) treated with INH-1R CPP, a scrambled peptide control, or vehicle for 14 days. […] C. Tumor volume was estimated daily.
In our in vivo studies, we attempted to mimic a post-surgical debulking situation in which patients with minimal residual tumor mass are administered chemotherapy. NOD/SCID mice were injected subcutaneously with OVCAR-3 cells bearing the aggregation prone p53 R248Q mutation and treated intraperitoneally with 15 mg/kg of either INH-1R as a single therapeutic agent, a control scrambled peptide, or vehicle daily for 14 days (FIG. 9).

Time serum concentration remained stable ([2]; 15 mg/kg IP)	Tmax ([2]; nude, mouse, serum, 15 mg/kg IP for three days, read-out: Time of peak serum concentration post injection) [h]	Cmax ([2]; nude, mouse, serum, 15 mg/kg IP, 1 hour after injection, read-out: Serum peak concentration) [nM]	level at time molar at 2 h ([2]; nude, mouse, serum, 15 mg/kg IP, 2 hours, read-out: Serum concentration 2 hours post infusion) [nM]	SMILES	Cancer cells surviving (cell viability, MTS) ([1]; 10 μM, 2D culture)	Inhibition of p53 aggregation (Thioflavin T fluorescence over time) [3]	Ability to enter cells (intracellular localization) [4]	Re-localization of p53 from cytosol to nucleus (MCF-7 (WT p53))	Recognition of p53 by PAb240 (misfolded p53) [5]	Total amount of p53 (OVCAR-3 cell lysates)	Cancer cells surviving (cell viability, MTS) ([1]; 10 µM)	Apoptosis (AnnexinV stain) [6]	Cell proliferation (Ki67 stain) [6]	Apoptosis and necrosis (Hoechst/PI/YO-PRO-1 stain) (OVCAR-3 cells [7])	Cell size and granularity (FACS) (OVCAR-3 cells [8])	Up-regulation of p53 target genes [9]	p53 target genes MDM2 and p21 in residual tumor tissue ([10]; 15 mg/kg IP daily for 14 days)	Xenograft mass reduction in weight ([10]; 15 mg/kg intraperitoneally daily for 14 days) [%]
up to 12 hours	1	~1200	~300	CC[C@H](C)[C@H](NC(=O)[C@H](CCCNC(=N)N)NC(=O)[C@@H](NC(=O)[C@H](CC(C)C)NC(=O)[C@@H](NC(=O)[C@@H]1CCCN1C(=O)[C@H](CCCNC(=N)N)NC(=O)[C@H](CCCNC(=N)N)NC(=O)[C@H](CCCNC(=N)N)NC(=O)[C@H](CCCNC(=N)N)NC(=O)[C@H](CCCNC(=N)N)NC(=O)[C@H](CCCNC(=N)N)NC(=O)[C@H](CCCNC(=N)N)NC(=O)[C@H](CCCNC(=N)N)NC(=O)[C@H](CCCNC(=N)N)NC(=O)[C@@H](N)CCCNC(=N)N)[C@@H](C)CC)[C@@H](C)O)C(=O)N[C@H](C(=O)N[C@@H](CC(C)C)C(=O)N[C@@H](CCC(=O)O)C(=O)O)[C@@H](C)O [INH-1R CPP, RRRRRRRRRRPILTRITLE]	Dose dependent reduction of cell viability													
				CC[C@H](C)[C@H](NC(=O)[C@H](CCCNC(=N)N)NC(=O)[C@@H](NC(=O)[C@H](CC(C)C)NC(=O)[C@@H](NC(=O)[C@@H]1CCCN1C(=O)[C@H](CCCNC(=N)N)NC(=O)[C@H](CCCNC(=N)N)NC(=O)[C@H](CCCNC(=N)N)NC(=O)[C@H](CCCNC(=N)N)NC(=O)[C@H](CCCNC(=N)N)NC(=O)[C@H](CCCNC(=N)N)NC(=O)[C@H](CCCNC(=N)N)NC(=O)[C@H](CCCNC(=N)N)NC(=O)[C@H](CCCNC(=N)N)NC(=O)[C@@H](N)CCCNC(=N)N)[C@@H](C)CC)[C@@H](C)O)C(=O)N[C@H](C(=O)N[C@@H](CC(C)C)C(=O)N[C@@H](CCC(=O)O)C(=O)O)[C@@H](C)O [INH-1R]		delay the aggregation onset and lower the total amount of aggregates present, in a concentration dependent fashion; also recorded: delayed the onset of aggregation and lowered the amount of aggregates present at all concentrations tested	able to penetrate the cell membrane, but also to actually enter the nucleus and co-localize with its target, p53	not observed	failed to be recognized by the antibody PAb240	decreasing in a dose dependent manner	less than 50%	increase in apoptosis	decrease in cell proliferation	Apoptosis as well as necrosis were induced specifically	a decrease in cell size and increase in granularity	up-regulation of p53 target genes only in tumor cells bearing aggregation-prone mutations	pronounced p21 and MDM2 activation	75
